# Columns and labels:
# Experiment in all cases: Test D pre-/postemergence plant response
# Type in all cases: in vivo
# [1] = tested on: Italian ryegrass (Lolium multiflorum)
# Method in brief: (§1)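 Ratings come from greenhouse-grown weeds in loam and sand treated pre- or postemergence (postemergence height 2 to 18 cm). Evaluation after 14–21 days, visual, relative to controls, on a 0–100 control scale.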
# [2] = tested on: Surinam grass (Brachiaria decumbens)
# Method in brief: as §1
# [3] = tested on: barnyardgrass (Echinochloa crus-galli)
# Method in brief: as §1
# [4] = tested on: bluegrass (annual bluegrass, Poa annua)
# Method in brief: as §1
# [5] = tested on: dallisgrass (Paspalum dilatatum)
# Method in brief: as §1
# [6] = tested on: dayflower (Virginia (VA) dayflower, Commelina virginica)
# Method in brief: as §1
# [7] = tested on: guineagrass (Panicum maximum)
# Method in brief: as §1
# [8] = tested on: itchgrass (Rottboellia cochinchinensis)
# Method in brief: as §1
# [9] = tested on: large crabgrass (Digitaria sanguinalis)
# Method in brief: as §1
# [10] = tested on: naked crabgrass (Digitaria nuda)
# Method in brief: as §1
# [11] = tested on: quackgrass (Elytrigia repens)
# Method in brief: as §1
# [12] = tested on: ragweed (common ragweed, Ambrosia elatior)
# Method in brief: as §1
# [13] = tested on: sandbur (southern sandbur, Cenchrus echinatus)
# Method in brief: as §1
# [14] = tested on: signalgrass (broadleaf signalgrass, Brachiaria platyphylla)
# Method in brief: as §1
# [15] = Postemergence, 16 g ai/ha, scale 0 to 100
# [16] = Postemergence, 31 g ai/ha, scale 0 to 100
# [17] = Postemergence, 125 g ai/ha, scale 0 to 100 (0 no effect, 100 complete control)
# [18] = Postemergence, 62 g ai/ha, scale 0 to 100 (0 no effect, 100 complete control)
# [19] = Preemergence, 16 g ai/ha, scale 0 to 100, 0 no effect, 100 complete control
# [20] = Preemergence, 31 g ai/ha, scale 0 to 100 (0 no effect, 100 complete control)
# [21] = Preemergence, 125 g ai/ha, scale 0 to 100
# [22] = Preemergence, rate not given, scale 0 to 100, 0 no effect, 100 complete control
# [23] = Postemergence, 31 g ai/ha, scale 0 to 100 (0 no effect, 100 complete control)
# [24] = Preemergence, 62 g ai/ha, scale 0 to 100
# [25] = Postemergence, 250 g ai/ha, scale 0 to 100 (0 no effect, 100 complete control)
smiles,measurement,setting,value
"O=C1CCCC(O)=C1C(=O)c1cnc(-c2ccccc2)n(C2CCCCC2)c1=O [Compound 128, 3-cyclohexyl-5-[(2-hydroxy-6-oxo-1-cyclohexen-1-yl)carbonyl]-2-phenyl-4(3H)-pyrimidinone]","Plant response rating, Ryegrass, Italian",[1]; [15],0
same,"Plant response rating, Ryegrass, Italian",[1]; [16],0
same,"Plant response rating, Ryegrass, Italian",[1]; [17],5
same,"Plant response rating, Ryegrass, Italian",[1]; [18],0
same,"Plant response rating, Ryegrass, Italian",[1]; [19],0
same,"Plant response rating, Ryegrass, Italian",[1]; [20],0
same,"Plant response rating, Ryegrass, Italian",[1]; [21],0
same,"Plant response rating, Ryegrass, Italian",[1]; [22],0
same,"Plant response rating, Surinam Grass",[2]; [16],25
same,"Plant response rating, Surinam Grass",[2]; [17],50
same,"Plant response rating, Surinam Grass",[2]; [18],30
same,"Plant response rating, Surinam Grass",[2]; [19],0
same,"Plant response rating, Surinam Grass",[2]; [20],35
same,"Plant response rating, Surinam Grass",[2]; [21],90
same,"Plant response rating, Surinam Grass",[2]; [22],80
same,"Plant response rating, Barnyardgrass",[3]; [15],35
same,"Plant response rating, Barnyardgrass",[3]; [23],70
same,"Plant response rating, Barnyardgrass",[3]; [17],90
same,"Plant response rating, Barnyardgrass",[3]; [18],70
same,"Plant response rating, Barnyardgrass",[3]; [19],0
same,"Plant response rating, Barnyardgrass",[3]; [20],0
same,"Plant response rating, Barnyardgrass",[3]; [24],5
same,"Plant response rating, Barnyardgrass",[3]; [21],15
same,"Plant response rating, Bluegrass",[4]; [15],0
same,"Plant response rating, Bluegrass",[4]; [23],0
same,"Plant response rating, Bluegrass",[4]; [17],0
same,"Plant response rating, Bluegrass",[4]; [18],0
same,"Plant response rating, Bluegrass",[4]; [19],0
same,"Plant response rating, Bluegrass",[4]; [20],0
same,"Plant response rating, Bluegrass",[4]; [24],25
same,"Plant response rating, Bluegrass",[4]; [21],25
same,"Plant response rating, Dallisgrass",[5]; [15],10
same,"Plant response rating, Dallisgrass",[5]; [16],20
same,"Plant response rating, Dallisgrass",[5]; [17],60
same,"Plant response rating, Dallisgrass",[5]; [18],30
same,"Plant response rating, Dallisgrass",[5]; [19],0
same,"Plant response rating, Dallisgrass",[5]; [20],20
same,"Plant response rating, Dallisgrass",[5]; [24],65
same,"Plant response rating, Dallisgrass",[5]; [21],98
same,"Plant response rating, Dayflower, VA",[6]; [15],50
same,"Plant response rating, Dayflower, VA",[6]; [16],50
same,"Plant response rating, Dayflower, VA",[6]; [17],70
same,"Plant response rating, Dayflower, VA",[6]; [18],60
same,"Plant response rating, Dayflower, VA",[6]; [20],0
same,"Plant response rating, Dayflower, VA",[6]; [24],10
same,"Plant response rating, Dayflower, VA",[6]; [21],25
same,"Plant response rating, Guineagrass",[7]; [15],20
same,"Plant response rating, Guineagrass",[7]; [16],30
same,"Plant response rating, Guineagrass",[7]; [17],35
same,"Plant response rating, Guineagrass",[7]; [18],30
same,"Plant response rating, Guineagrass",[7]; [19],0
same,"Plant response rating, Guineagrass",[7]; [20],0
same,"Plant response rating, Guineagrass",[7]; [24],0
same,"Plant response rating, Guineagrass",[7]; [21],0
same,"Plant response rating, Itchgrass",[8]; [15],0
same,"Plant response rating, Itchgrass",[8]; [16],40
same,"Plant response rating, Itchgrass",[8]; [17],65
same,"Plant response rating, Itchgrass",[8]; [18],40
same,"Plant response rating, Itchgrass",[8]; [19],0
same,"Plant response rating, Itchgrass",[8]; [20],0
same,"Plant response rating, Itchgrass",[8]; [24],0
same,"Plant response rating, Itchgrass",[8]; [21],20
same,"Plant response rating, Crabgrass, Large",[9]; [15],40
same,"Plant response rating, Crabgrass, Large",[9]; [16],50
same,"Plant response rating, Crabgrass, Large",[9]; [17],70
same,"Plant response rating, Crabgrass, Large",[9]; [18],60
same,"Plant response rating, Crabgrass, Large",[9]; [19],0
same,"Plant response rating, Crabgrass, Large",[9]; [20],25
same,"Plant response rating, Crabgrass, Large",[9]; [24],60
same,"Plant response rating, Crabgrass, Naked",[10]; [15],35
same,"Plant response rating, Crabgrass, Naked",[10]; [16],65
same,"Plant response rating, Crabgrass, Naked",[10]; [17],75
same,"Plant response rating, Crabgrass, Naked",[10]; [18],70
same,"Plant response rating, Crabgrass, Naked",[10]; [19],0
same,"Plant response rating, Crabgrass, Naked",[10]; [20],0
same,"Plant response rating, Crabgrass, Naked",[10]; [24],0
same,"Plant response rating, Crabgrass, Naked",[10]; [21],75
same,"Plant response rating, Quackgrass",[11]; [15],0
same,"Plant response rating, Quackgrass",[11]; [16],0
same,"Plant response rating, Quackgrass",[11]; [17],5
same,"Plant response rating, Quackgrass",[11]; [18],0
same,"Plant response rating, Quackgrass",[11]; [19],0
same,"Plant response rating, Quackgrass",[11]; [20],0
same,"Plant response rating, Quackgrass",[11]; [21],0
same,"Plant response rating, Ragweed",[12]; [16],75
same,"Plant response rating, Ragweed",[12]; [17],90
same,"Plant response rating, Ragweed",[12]; [18],90
same,"Plant response rating, Ragweed",[12]; [19],0
same,"Plant response rating, Ragweed",[12]; [20],75
same,"Plant response rating, Ragweed",[12]; [21],100
same,"Plant response rating, Sandbur",[13]; [15],5
same,"Plant response rating, Sandbur",[13]; [16],5
same,"Plant response rating, Sandbur",[13]; [17],35
same,"Plant response rating, Sandbur",[13]; [18],5
same,"Plant response rating, Sandbur",[13]; [19],0
same,"Plant response rating, Sandbur",[13]; [20],0
same,"Plant response rating, Sandbur",[13]; [21],20
same,"Plant response rating, Sandbur",[13]; [22],20
same,"Plant response rating, Signalgrass",[14]; [15],0
same,"Plant response rating, Signalgrass",[14]; [16],30
same,"Plant response rating, Signalgrass",[14]; [17],35
same,"Plant response rating, Signalgrass",[14]; [18],35
same,"Plant response rating, Signalgrass",[14]; [19],0
same,"Plant response rating, Signalgrass",[14]; [20],0
same,"Plant response rating, Signalgrass",[14]; [21],5
CCCn1c(-c2ccccc2)ncc(C(=O)C2=C(O)C3CCC(C3)C2=O)c1=O (stereo not shown) [Compound 226],"Plant response rating, Ryegrass, Italian",[1]; [17],0
same,"Plant response rating, Ryegrass, Italian",[1]; [25],15
same,"Plant response rating, Ryegrass, Italian",[1]; [18],0
same,"Plant response rating, Surinam Grass",[2]; [17],90
same,"Plant response rating, Surinam Grass",[2]; [25],90
same,"Plant response rating, Surinam Grass",[2]; [18],70
same,"Plant response rating, Barnyardgrass",[3]; [23],85
same,"Plant response rating, Barnyardgrass",[3]; [17],95
same,"Plant response rating, Barnyardgrass",[3]; [25],95
same,"Plant response rating, Barnyardgrass",[3]; [18],85
same,"Plant response rating, Bluegrass",[4]; [23],0
same,"Plant response rating, Bluegrass",[4]; [17],10
same,"Plant response rating, Bluegrass",[4]; [25],30
same,"Plant response rating, Bluegrass",[4]; [18],10
same,"Plant response rating, Dallisgrass",[5]; [17],30
same,"Plant response rating, Dallisgrass",[5]; [25],35
same,"Plant response rating, Dallisgrass",[5]; [18],20
same,"Plant response rating, Dayflower, VA",[6]; [25],65
same,"Plant response rating, Dayflower, VA",[6]; [18],50
same,"Plant response rating, Guineagrass",[7]; [17],80
same,"Plant response rating, Guineagrass",[7]; [25],80
same,"Plant response rating, Guineagrass",[7]; [18],80
same,"Plant response rating, Itchgrass",[8]; [17],70
same,"Plant response rating, Itchgrass",[8]; [25],90
same,"Plant response rating, Itchgrass",[8]; [18],70
same,"Plant response rating, Crabgrass, Large",[9]; [17],75
same,"Plant response rating, Crabgrass, Large",[9]; [25],85
same,"Plant response rating, Crabgrass, Large",[9]; [18],75
same,"Plant response rating, Crabgrass, Naked",[10]; [17],70
same,"Plant response rating, Crabgrass, Naked",[10]; [25],75
same,"Plant response rating, Crabgrass, Naked",[10]; [18],65
same,"Plant response rating, Quackgrass",[11]; [17],20
same,"Plant response rating, Quackgrass",[11]; [25],35
same,"Plant response rating, Quackgrass",[11]; [18],0
same,"Plant response rating, Ragweed",[12]; [17],90
same,"Plant response rating, Ragweed",[12]; [25],98
same,"Plant response rating, Ragweed",[12]; [18],90
same,"Plant response rating, Sandbur",[13]; [17],75
same,"Plant response rating, Sandbur",[13]; [25],75
same,"Plant response rating, Sandbur",[13]; [18],75
same,"Plant response rating, Signalgrass",[14]; [17],65
same,"Plant response rating, Signalgrass",[14]; [25],65
same,"Plant response rating, Signalgrass",[14]; [18],40
